Here are results for seven compounds from ChEMBL document CHEMBL5236593, “Design, synthesis and biological evaluation studies of novel anti-fibrosis agents bearing sulfoxide moiety” (2022).

For assay [1], the system named is Mus musculus. The assay is described as follows: Anti-fibrotic activity against CCl4-induced liver fibrosis C57BL/6 mouse model assessed as reduction in liver bridging fibrosis at 250 mg/kg, ig administered for 27 days with first injection started at 24 hrs post-first CCl4 challenge and measured at 48 hrs post-last administration by Masson's trichrome staining based analysis. The settings on record: time 29.0 day. The class given is functional, organism-based.

Assay [2] relates to Mus musculus. The assay is described as follows: Anti-fibrotic activity against BLM-induced pulmonary fibrosis C57BL/6 mouse model assessed as reduction in hydroxyproline content in lungs at 200 mg/kg administered via gavage for 13 days with first injection started at 24 hrs post-first BLM challenge and measured after 24 hrs. Type of assay: functional, organism-based. The following applies: time 14.0 day.

The nature of assay [3]: Anti-fibrotic activity in human NHCF-V cells assessed as downregulation of PAI-1 mRNA expression at 0.1 to 1 uM pretreated with compound for 30 mins followed by TGF-beta stimulation and measured after 24 hrs by qRT-PCR analysis. Type of assay: functional. The settings on record: dose 0.1-1 µM, time 24.5 hrs. For orientation: Quantitative PCR measures a nucleic acid by following its amplification.

In assay [4] the test system is Mus musculus. The assay is described as follows: Anti-fibrotic activity against CCl4-induced liver fibrosis C57BL/6 mouse model assessed as reduction in serum TBIL level at 200 mg/kg, ig administered for 27 days with first injection started at 24 hrs post-first CCl4 challenge and measured at 48 hrs post-last administration. The class given is functional, organism-based. The settings on record: time 29.0 day.

The test system of assay [5] is HRMC. Briefly: Anti-fibrotic activity in human HRMC cells assessed as downregulation of COL16A1 mRNA expression at 1 uM pretreated with compound for 30 mins followed by TGF-beta stimulation and measured after 24 hrs by qRT-PCR analysis. Type of assay: functional, cell-based. The settings on record: time 24.5 hrs.
Assay [6] relates to HRMC. Briefly: Anti-fibrotic activity in human HRMC cells assessed as downregulation of COL4A1 mRNA expression at 1 uM pretreated with compound for 30 mins followed by TGF-beta stimulation and measured after 24 hrs by qRT-PCR analysis. The class given is functional, cell-based. The settings on record: time 24.5 hrs.
Assay [7] concerns HRMC. Briefly: Anti-fibrotic activity in human HRMC cells assessed as downregulation of CTGF mRNA expression at 1 uM pretreated with compound for 30 mins followed by TGF-beta stimulation and measured after 24 hrs by qRT-PCR analysis. Type of assay: functional, cell-based. The following applies: time 24.5 hrs.
Assay [8] has as its system Mus musculus. Briefly: Anti-fibrotic activity against BLM-induced pulmonary fibrosis C57BL/6 mouse model assessed as reduction in lung inflammation at 200 mg/kg administered via gavage for 13 days with first injection started at 24 hrs post-first BLM challenge and measured after 24 hrs by H and E staining based microscopic analysis. The following applies: time 14.0 day. The class given is functional, organism-based.

A short description of assay [9]: Anti-fibrotic activity in human NHCF-V cells assessed as downregulation of ACTA2 mRNA expression at 0.1 to 1 uM pretreated with compound for 30 mins followed by TGF-beta stimulation and measured after 24 hrs by qRT-PCR analysis. Type of assay: functional. The settings on record: dose 0.1-1 µM, time 24.5 hrs.
Assay [10] has as its system Mus musculus. Briefly: Anti-fibrotic activity against BLM-induced pulmonary fibrosis C57BL/6 mouse model assessed as reduction in area of lung fibrosis at 200 mg/kg administered via gavage for 13 days with first injection started at 24 hrs post-first BLM challenge and measured after 24 hrs by H and E staining based microscopic analysis. Type of assay: functional, organism-based. The settings on record: time 14.0 day.

Assay [11] deals with Mus musculus. Briefly: Anti-fibrotic activity against CCl4-induced liver fibrosis C57BL/6 mouse model assessed as reduction in serum ALT level at 200 mg/kg, ig administered for 27 days with first injection started at 24 hrs post-first CCl4 challenge and measured at 48 hrs post-last administration. Type of assay: functional, organism-based. The following applies: time 29.0 day.

A short description of assay [12]: Anti-fibrotic activity in human NHCF-V cells assessed as downregulation of CTGF mRNA expression at 0.1 to 1 uM pretreated with compound for 30 mins followed by TGF-beta stimulation and measured after 24 hrs by qRT-PCR analysis. Type of assay: functional. The settings on record: dose 0.1-1 µM, time 24.5 hrs.
For assay [13], the system named is Mus musculus. The assay is described as follows: Anti-fibrotic activity against CCl4-induced liver fibrosis C57BL/6 mouse model assessed as reduction in liver bridging fibrosis at 200 mg/kg, ig administered for 27 days with first injection started at 24 hrs post-first CCl4 challenge and measured at 48 hrs post-last administration by Masson's trichrome staining based analysis. The class given is functional, organism-based. The following applies: time 29.0 day.

For assay [14], the system named is Mus musculus. Briefly: Anti-fibrotic activity against BLM-induced pulmonary fibrosis C57BL/6 mouse model assessed as reduction in area of lung fibrosis at 200 mg/kg administered via gavage for 13 days with first injection started at 24 hrs post-first BLM challenge and measured after 24 hrs by Masson's trichrome staining based analysis. The settings on record: time 14.0 day. The class given is functional, organism-based.

Assay [15] deals with Mus musculus. The assay is described as follows: Anti-fibrotic activity against CCl4-induced liver fibrosis C57BL/6 mouse model assessed as reduction in serum IBIL level at 200 mg/kg, ig administered for 27 days with first injection started at 24 hrs post-first CCl4 challenge and measured at 48 hrs post-last administration. The following applies: time 29.0 day. Type of assay: functional, organism-based.

In assay [16] the test system is Mus musculus. Briefly: Anti-fibrotic activity against BLM-induced pulmonary fibrosis C57BL/6 mouse model assessed as reduction in lung fibrosis at 200 mg/kg administered via gavage for 13 days with first injection started at 24 hrs post-first BLM challenge and measured after 24 hrs by Ashcroft score based analysis. The class given is functional, organism-based. The settings on record: time 14.0 day.

Assay [17] deals with LX-2. Briefly: Anti-fibrotic activity in human LX2 cells assessed as downregulation of CTGF mRNA expression at 0.1 to 1 uM pretreated with compound for 30 mins followed by TGF-beta stimulation and measured after 24 hrs by qRT-PCR analysis. The class given is functional, cell-based. The following applies: dose 0.1-1 µM, time 24.5 hrs.
Assay [18] concerns HRMC. The assay is described as follows: Anti-fibrotic activity in human HRMC cells assessed as downregulation of IL11 mRNA expression at 1 uM pretreated with compound for 30 mins followed by TGF-beta stimulation and measured after 24 hrs by qRT-PCR analysis. Type of assay: functional, cell-based. The settings on record: time 24.5 hrs.
Assay [19] concerns Mus musculus. The assay is described as follows: Anti-fibrotic activity against CCl4-induced liver fibrosis C57BL/6 mouse model assessed as reduction in serum hydroxyproline content at 200 mg/kg, ig administered for 27 days with first injection started at 24 hrs post-first CCl4 challenge and measured at 48 hrs post-last administration. The settings on record: time 29.0 day. Type of assay: functional, organism-based.

For assay [20], the system named is LX-2. The assay is described as follows: Anti-fibrotic activity in human LX2 cells assessed as downregulation of ACTA2 mRNA expression at 0.1 to 1 uM pretreated with compound for 30 mins followed by TGF-beta stimulation and measured after 24 hrs by qRT-PCR analysis. Type of assay: functional, cell-based. The settings on record: dose 0.1-1 µM, time 24.5 hrs.
The test system of assay [21] is Mus musculus. Briefly: Anti-fibrotic activity against BLM-induced pulmonary fibrosis C57BL/6 mouse model assessed as reduction in lung inflammation at 200 mg/kg administered via gavage for 13 days with first injection started at 24 hrs post-first BLM challenge and measured after 24 hrs by Masson's trichrome staining based analysis. Type of assay: functional, organism-based. The following applies: time 14.0 day.

Assay [22] relates to NHCF-V. The assay is described as follows: Anti-fibrotic activity in human NHCF-V cells assessed as downregulation of ACTA2 mRNA expression at 1 uM pretreated with compound for 30 mins followed by TGF-beta stimulation and measured after 24 hrs by qRT-PCR analysis. Type of assay: functional, cell-based. The settings on record: time 24.5 hrs.
The subject of assay [23] is LX-2. The assay is described as follows: Anti-fibrotic activity in human LX2 cells assessed as downregulation of ACTA2 mRNA expression at 1 uM pretreated with compound for 30 mins followed by TGF-beta stimulation and measured after 24 hrs by qRT-PCR analysis. Type of assay: functional, cell-based. The settings on record: time 24.5 hrs.
Assay [24] deals with NHCF-V. Briefly: Anti-fibrotic activity in human NHCF-V cells assessed as downregulation of TGF-beta1 mRNA expression at 1 uM pretreated with compound for 30 mins followed by TGF-beta stimulation and measured after 24 hrs by qRT-PCR analysis. The class given is functional, cell-based. The following applies: time 24.5 hrs.
For assay [25], the system named is NHCF-V. Briefly: Anti-fibrotic activity in human NHCF-V cells assessed as downregulation of PAI-1 mRNA expression at 1 uM pretreated with compound for 30 mins followed by TGF-beta stimulation and measured after 24 hrs by qRT-PCR analysis. The class given is functional, cell-based. The settings on record: time 24.5 hrs.
The subject of assay [26] is LX-2. The assay is described as follows: Anti-fibrotic activity in human LX2 cells assessed as downregulation of CTGF mRNA expression at 1 uM pretreated with compound for 30 mins followed by TGF-beta stimulation and measured after 24 hrs by qRT-PCR analysis. The class given is functional, cell-based. The settings on record: time 24.5 hrs.
In assay [27] the test system is LX-2. The assay is described as follows: Anti-fibrotic activity in human LX2 cells assessed as downregulation of PAI-1 mRNA expression at 1 uM pretreated with compound for 30 mins followed by TGF-beta stimulation and measured after 24 hrs by qRT-PCR analysis. The class given is functional, cell-based. The following applies: time 24.5 hrs.
The test system of assay [28] is LX-2. Briefly: Anti-fibrotic activity in human LX2 cells assessed as downregulation of COL1A1 mRNA expression at 1 uM pretreated with compound for 30 mins followed by TGF-beta stimulation and measured after 24 hrs by qRT-PCR analysis. The class given is functional, cell-based. The settings on record: time 24.5 hrs.
Assay [29] concerns NHCF-V. The assay is described as follows: Anti-fibrotic activity in human NHCF-V cells assessed as downregulation of CTGF mRNA expression at 1 uM pretreated with compound for 30 mins followed by TGF-beta stimulation and measured after 24 hrs by qRT-PCR analysis. Type of assay: functional, cell-based. The following applies: time 24.5 hrs.

Each structure is given as a SMILES string. The source made the active and inactive calls. The rule behind the calls is not given here.

Turning to `Cc1ccc(=O)n(-c2ccccc2)c1`, the result in the assay with Mus musculus [1] was Active.
On to `CC1(C[S+]([O-])Cc2ccccc2)COC1` (centres undefined), for which the result with Mus musculus [2], in the assay on Mus musculus [4], with Mus musculus [8], with Mus musculus [10], in the assay with Mus musculus [11] and in the assay with Mus musculus [13] was Active. Further, the result in the assay on Mus musculus [14], with Mus musculus [15], in the assay with Mus musculus [16], in the assay on LX-2 [17], in the assay with Mus musculus [19] and with LX-2 [20] was Active. Moreover, the outcome in the assay with Mus musculus [21] was Active. Further, the “inhibition (INH)” value in assay [3], in [9] and in [12] was under 30% each time. Further, the result with HRMC [5], in the assay with HRMC [6], in the assay on HRMC [7] and with HRMC [18] was inactive.
In the case of `CC1(C[S+]([O-])c2ccccc2)COC1` (centres undefined), the result with NHCF-V [22], in the assay with LX-2 [23], with NHCF-V [24], in the assay with HRMC [5], in the assay with HRMC [6] and in the assay with NHCF-V [25] was inactive. Also, the result with HRMC [7], with LX-2 [26], in the assay with LX-2 [27], in the assay with Mus musculus [13], in the assay with LX-2 [28] and in the assay on NHCF-V [29] was inactive. The outcome in the assay on HRMC [18] was inactive. In addition, the outcome with Mus musculus [4], with Mus musculus [11], with Mus musculus [15] and with Mus musculus [16] was Active.
Take `CCC1(C[S+]([O-])c2cccc(F)c2)COC1` (centres undefined): the result with NHCF-V [25] was Active.
In the case of `NC(=O)C[S+]([O-])c1cccc(F)c1` (centres undefined), the outcome in the assay on NHCF-V [22], in the assay on LX-2 [23], in the assay with NHCF-V [24], in the assay with HRMC [5], in the assay on HRMC [6] and in the assay on NHCF-V [25] was inactive. The outcome with HRMC [7], in the assay with LX-2 [26], with LX-2 [27], in the assay with LX-2 [28], in the assay on NHCF-V [29] and in the assay on HRMC [18] was inactive.
Regarding `NC(=O)C[S+]([O-])Cc1ccccc1` (centres undefined), the result in the assay on NHCF-V [22], with LX-2 [23], with NHCF-V [24], in the assay with HRMC [5], in the assay on HRMC [6] and in the assay with NHCF-V [25] was inactive. The result in the assay with HRMC [7], with LX-2 [26], in the assay on LX-2 [27], in the assay on LX-2 [28], in the assay on NHCF-V [29] and in the assay on HRMC [18] was inactive.
Turning to `CC1(C[S+]([O-])c2cccc(F)c2)COC1` (centres undefined), in the assay with HRMC [5], the result was Active.
